In ChEMBL document CHEMBL1126588 (J Med Chem, 1993) one finds Ki data, which are given here for twelve molecules.

pKi: −log10 of the molar value. Where a SMILES comes first, the peptide text is derived from it. [ ]: non-standard residue; d: D form. Ahx = NCCCCCC(=O)O Where only a bound is given, the exact number is not on record here.

Test [1] concerns the target T1, Neuropeptide Y receptor type 1 (Homo sapiens, UniProt P25929).
T1 sequence (P25929 whole entry): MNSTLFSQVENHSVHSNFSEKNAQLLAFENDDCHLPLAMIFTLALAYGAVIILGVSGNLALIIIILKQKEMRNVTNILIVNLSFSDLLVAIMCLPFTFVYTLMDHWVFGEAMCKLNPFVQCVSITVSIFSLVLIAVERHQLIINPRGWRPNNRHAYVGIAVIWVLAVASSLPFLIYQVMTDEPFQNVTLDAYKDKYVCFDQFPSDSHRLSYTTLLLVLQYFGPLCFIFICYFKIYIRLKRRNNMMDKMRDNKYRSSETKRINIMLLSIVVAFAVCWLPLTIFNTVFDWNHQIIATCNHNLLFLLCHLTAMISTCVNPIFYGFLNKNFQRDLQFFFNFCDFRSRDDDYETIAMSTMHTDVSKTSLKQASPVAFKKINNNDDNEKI
Put plainly: Tested against neuropeptide Y1 receptors using SK-N-MC human neuroblastoma cells. It is filed as cell-based.

The target of test [2] is T2, Neuropeptide Y receptor type 2 (Homo sapiens, UniProt P49146).
T2 sequence (P49146 whole entry): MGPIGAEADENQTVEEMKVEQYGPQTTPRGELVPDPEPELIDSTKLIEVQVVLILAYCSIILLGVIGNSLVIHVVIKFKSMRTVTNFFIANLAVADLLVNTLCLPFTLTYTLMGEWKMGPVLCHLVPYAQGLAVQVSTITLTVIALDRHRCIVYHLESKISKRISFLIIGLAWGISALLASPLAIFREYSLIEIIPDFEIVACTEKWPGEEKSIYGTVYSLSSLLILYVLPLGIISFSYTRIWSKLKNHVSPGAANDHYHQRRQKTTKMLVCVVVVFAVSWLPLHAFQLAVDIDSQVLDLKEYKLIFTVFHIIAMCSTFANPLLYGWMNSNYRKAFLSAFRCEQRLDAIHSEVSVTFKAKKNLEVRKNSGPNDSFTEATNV
Put plainly: Tested against neuropeptide Y2 receptors using SK-N-BE2 human neuroblastoma cells.

A word on the pKi: it is the negative decadic logarithm of the Ki, by convention in mol/L. `CC[C@H](C)[C@H](NC(=O)[C@H](Cc1ccc(O)cc1)NC(=O)[C@H](Cc1cnc[nH]1)NC(=O)[C@H](CCCNC(=N)N)NC(=O)[C@@H](C)NC(=O)[C@@H]1CCCN1C(=O)[C@H](CCCCN)NC(=O)[C@H](CO)NC(=O)[C@@H]1CCCN1C(=O)[C@@H](N)Cc1ccc(O)cc1)C(=O)N[C@@H](CC(N)=O)C(=O)N[C@@H](CC(C)C)C(=O)N[C@H](C(=O)N[C@H](C(=O)N[C@@H](CCCNC(=N)N)C(=O)N[C@@H](CCC(N)=O)C(=O)N[C@@H](CCCNC(=N)N)C(=O)N[C@@H](Cc1ccc(O)cc1)C(=O)O)[C@@H](C)O)[C@@H](C)CC`: the pKi in test [1] was 6.54; in test [2], 9.05. With `CC[C@H](C)[C@H](NC(=O)[C@H](CC(C)C)NC(=O)[C@H](CC(N)=O)NC(=O)[C@@H](NC(=O)[C@H]1CCCCNC(=O)C[C@H](NC(=O)[C@@H](N)Cc2ccc(O)cc2)C(=O)N[C@@H](CO)C(=O)N[C@@H](CCCCN)C(=O)N2CCC[C@H]2C(=O)N[C@H](C)C(=O)N[C@@H](CCCNC(=N)N)C(=O)N[C@@H](Cc2cnc[nH]2)C(=O)N1)[C@@H](C)CC)C(=O)N[C@H](C(=O)N[C@@H](CCCNC(=N)N)C(=O)N[C@@H](CCC(N)=O)C(=O)N[C@@H](CCCNC(=N)N)C(=O)N[C@@H](Cc1ccc(O)cc1)C(=O)O)[C@@H](C)O`, the pKi in test [1] was under 6.00; in test [2], 9.30. On to `CC[C@H](C)[C@H](NC(=O)[C@H](CC(C)C)NC(=O)[C@H](CC(N)=O)NC(=O)[C@@H](NC(=O)[C@H]1CNC(=O)CC[C@H](NC(=O)[C@@H](N)Cc2ccc(O)cc2)C(=O)N[C@@H](CO)C(=O)N[C@@H](CCCCN)C(=O)NCCCCCC(=O)N[C@@H](CCCN=C(N)N)C(=O)N[C@@H](Cc2c[nH]cn2)C(=O)N1)[C@@H](C)CC)C(=O)N[C@H](C(=O)N[C@@H](CCCN=C(N)N)C(=O)N[C@@H](CCC(N)=O)C(=O)N[C@@H](CCCN=C(N)N)C(=O)N[C@@H](Cc1ccc(O)cc1)C(N)=O)[C@@H](C)O`, for which the pKi in test [1] (sk-n-mc) is 6.66; in test [2], 8.64. Turning to `CC[C@H](C)[C@H](NC(=O)[C@H](CC(C)C)NC(=O)[C@H](CC(N)=O)NC(=O)[C@@H](NC(=O)[C@H]1CNC(=O)CC[C@@H](NC(=O)[C@@H](N)Cc2ccc(O)cc2)C(=O)N[C@@H](CO)C(=O)N[C@@H](CCCCN)C(=O)N2CCC[C@H]2C(=O)N[C@H](C)C(=O)N[C@@H](CCCN=C(N)N)C(=O)N[C@@H](Cc2c[nH]cn2)C(=O)N1)[C@@H](C)CC)C(=O)N[C@H](C(=O)N[C@@H](CCCN=C(N)N)C(=O)N[C@@H](CCC(N)=O)C(=O)N[C@@H](CCCN=C(N)N)C(=O)N[C@@H](Cc1ccc(O)cc1)C(N)=O)[C@@H](C)O`, the pKi in test [1] (sk-n-mc) is 6.64; in test [2] it was 8.96.

In the case of `CC[C@H](C)[C@H](NC(=O)[C@H](CC(C)C)NC(=O)[C@H](CC(N)=O)NC(=O)[C@@H](NC(=O)[C@H]1CNC(=O)CC[C@H](NC(=O)[C@@H](N)Cc2ccc(O)cc2)C(=O)N[C@@H](CO)C(=O)N[C@@H](CCCCN)C(=O)N2CCC[C@H]2C(=O)N[C@H](C)C(=O)N[C@@H](CCCN=C(N)N)C(=O)N[C@@H](Cc2c[nH]cn2)C(=O)N1)[C@@H](C)CC)C(=O)N[C@H](C(=O)N[C@@H](CCCN=C(N)N)C(=O)N[C@@H](CCC(N)=O)C(=O)N[C@@H](CCCN=C(N)N)C(=O)N[C@@H](Cc1ccc(O)cc1)C(N)=O)[C@@H](C)O`, the pKi is under 6.00 in test [1] (sk-n-mc) and 9.52 in test [2]. Turning to `CC[C@H](C)[C@H](NC(=O)[C@H](Cc1ccc(O)cc1)NC(=O)[C@H](Cc1c[nH]cn1)NC(=O)[C@H](CCCN=C(N)N)NC(=O)[C@H](CC(C)C)NC(=O)[C@H](C)NC(=O)[C@H](CO)NC(=O)[C@H](Cc1ccc(O)cc1)NC(=O)[C@H](Cc1ccc(O)cc1)NC(=O)[C@H](CCCN=C(N)N)NC(=O)[C@H](C)NC(=O)[C@H](CC(C)C)NC(=O)[C@H](CC(=O)O)NC(=O)[C@H](CCC(=O)O)NC(=O)[C@H](C)NC(=O)[C@@H]1CCCN1)C(=O)N[C@@H](CC(N)=O)C(=O)N[C@@H](CC(C)C)C(=O)N[C@H](C(=O)N[C@H](C(=O)N[C@@H](CCCN=C(N)N)C(=O)N[C@@H](CCC(N)=O)C(=O)N[C@@H](CCCN=C(N)N)C(=O)N[C@@H](Cc1ccc(O)cc1)C(=O)O)[C@@H](C)O)[C@@H](C)CC`, the pKi in test [2] is 9.10. Consider `CC[C@H](C)[C@@H]1NC(=O)[C@H](CC(C)C)NC(=O)[C@H](CC(N)=O)NC(=O)[C@@H](NC(=O)[C@H](Cc2ccc(O)cc2)NC(=O)[C@H](Cc2cnc[nH]2)NC(=O)[C@H](CCCNC(=N)N)NC(=O)[C@@H](C)NC(=O)[C@@H]2CCCN2C(=O)[C@H](CCCCN)NC(=O)[C@H](CO)NC(=O)[C@@H]2CCCN2C(=O)[C@@H](N)Cc2ccc(O)cc2)CCCCNC(=O)CC[C@@H](C(=O)N[C@@H](CCCNC(=N)N)C(=O)N[C@@H](CCC(N)=O)C(=O)N[C@@H](CCCNC(=N)N)C(=O)N[C@@H](Cc2ccc(O)cc2)C(=O)O)NC1=O`, for which the pKi in test [1] is under 6.00; in test [2], 9.30. In the case of `CC[C@H](C)[C@@H]1NC(=O)[C@H](CC(C)C)NC(=O)[C@H](CC(N)=O)NC(=O)[C@@H](NC(=O)[C@H]2CNC(=O)CC[C@H](NC(=O)[C@@H](N)Cc3ccc(O)cc3)C(=O)N[C@@H](CO)C(=O)N[C@@H](CCCCN)C(=O)N3CCC[C@H]3C(=O)N[C@H](C)C(=O)N[C@@H](CCCN=C(N)N)C(=O)N[C@@H](Cc3c[nH]cn3)C(=O)N2)CCCCNC(=O)CC[C@@H](C(=O)N[C@@H](CCCN=C(N)N)C(=O)N[C@@H](CCC(N)=O)C(=O)N[C@@H](CCCN=C(N)N)C(=O)N[C@@H](Cc2ccc(O)cc2)C(N)=O)NC1=O`, the pKi in test [1] (sk-n-mc) is under 6.00; in test [2], 9.52.

In the case of H-YPSKPGRHYINLITRQRY-OH, the pKi in test [2] was 8.51. On to `CC[C@H](C)[C@H](NC(=O)[C@H](Cc1ccc(O)cc1)NC(=O)[C@H](Cc1cnc[nH]1)NC(=O)[C@H](CCCNC(=N)N)NC(=O)CCCCCNC(=O)[C@H](CCCCN)NC(=O)[C@H](CO)NC(=O)[C@@H]1CCCN1C(=O)[C@@H](N)Cc1ccc(O)cc1)C(=O)N[C@@H](CC(N)=O)C(=O)N[C@@H](CC(C)C)C(=O)N[C@H](C(=O)N[C@H](C(=O)N[C@@H](CCCNC(=N)N)C(=O)N[C@@H](CCC(N)=O)C(=O)N[C@@H](CCCNC(=N)N)C(=O)N[C@@H](Cc1ccc(O)cc1)C(=O)O)[C@@H](C)O)[C@@H](C)CC` (H-YPSK[Ahx]RHYINLITRQRY-OH), for which the figures for the negative logarithm of the Ki (pKi) in test [1] and in test [2] were 6.58 and 9.00, respectively.

Turning to `CC[C@H](C)[C@H](NC(=O)[C@H](CC(C)C)NC(=O)[C@H](CC(N)=O)NC(=O)[C@@H](NC(=O)[C@H]1CNC(=O)CC[C@H](NC(=O)[C@@H](N)Cc2ccc(O)cc2)C(=O)N[C@@H](CO)C(=O)N[C@@H](CCCCN)C(=O)N2CCC[C@H]2C(=O)NCC(=O)N[C@@H](CCCN=C(N)N)C(=O)N[C@@H](Cc2c[nH]cn2)C(=O)N1)[C@@H](C)CC)C(=O)N[C@H](C(=O)N[C@@H](CCCN=C(N)N)C(=O)N[C@@H](CCC(N)=O)C(=O)N[C@@H](CCCN=C(N)N)C(=O)N[C@@H](Cc1ccc(O)cc1)C(N)=O)[C@@H](C)O`, the figures for the pKi in test [1] (sk-n-mc) and in test [2] were 6.89 and 9.52, respectively.

As to `CC[C@H](C)[C@H](NC(=O)[C@H](CC(C)C)NC(=O)[C@H](CC(N)=O)NC(=O)[C@@H](NC(=O)[C@H]1CNC(=O)C[C@H](NC(=O)[C@@H](N)Cc2ccc(O)cc2)C(=O)N[C@@H](CO)C(=O)N[C@@H](CCCCN)C(=O)N2CCC[C@H]2C(=O)N[C@H](C)C(=O)N[C@@H](CCCNC(=N)N)C(=O)N[C@@H](Cc2c[nH]cn2)C(=O)N1)[C@@H](C)CC)C(=O)N[C@H](C(=O)N[C@@H](CCCNC(=N)N)C(=O)N[C@@H](CCC(N)=O)C(=O)N[C@@H](CCCNC(=N)N)C(=O)N[C@@H](Cc1ccc(O)cc1)C(=O)O)[C@@H](C)O`, the pKi in test [1] (sk-n-mc) was under 6.00; in test [2] it was 8.82.
